# Laboratory results from patent US20230117034A1, “PYRAZOLOTRIAZINES” (Bayer Aktiengesellschaft, priority 2019, published 2023).
# Read-outs that look alike come from different tables or passages of the source.
# Legend:
# CDK9/CycT1 = target: T1, CDK9/CycT1 (Homo sapiens, UniProt P50750); assay: CDK9/CycT1 high ATP kinase assay (TR-FRET, 2 mM ATP); format: biochemical
# T1 construct: Recombinant full-length His-tagged human CDK9 and CycT1; purchased Life Technologies PV4131; host or cells: insect cells
# T1 sequence (P50750 whole entry): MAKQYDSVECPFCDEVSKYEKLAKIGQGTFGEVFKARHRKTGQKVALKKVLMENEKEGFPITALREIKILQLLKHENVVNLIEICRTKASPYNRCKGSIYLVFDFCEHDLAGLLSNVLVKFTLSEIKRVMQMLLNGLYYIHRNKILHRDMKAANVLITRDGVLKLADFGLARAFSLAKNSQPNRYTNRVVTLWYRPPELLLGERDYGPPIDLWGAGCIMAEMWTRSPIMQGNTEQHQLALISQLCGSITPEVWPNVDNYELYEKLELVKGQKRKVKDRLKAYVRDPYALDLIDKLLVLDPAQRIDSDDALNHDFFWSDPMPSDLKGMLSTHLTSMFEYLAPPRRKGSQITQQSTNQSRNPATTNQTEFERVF
# T1 sequence (O60563 whole entry partner): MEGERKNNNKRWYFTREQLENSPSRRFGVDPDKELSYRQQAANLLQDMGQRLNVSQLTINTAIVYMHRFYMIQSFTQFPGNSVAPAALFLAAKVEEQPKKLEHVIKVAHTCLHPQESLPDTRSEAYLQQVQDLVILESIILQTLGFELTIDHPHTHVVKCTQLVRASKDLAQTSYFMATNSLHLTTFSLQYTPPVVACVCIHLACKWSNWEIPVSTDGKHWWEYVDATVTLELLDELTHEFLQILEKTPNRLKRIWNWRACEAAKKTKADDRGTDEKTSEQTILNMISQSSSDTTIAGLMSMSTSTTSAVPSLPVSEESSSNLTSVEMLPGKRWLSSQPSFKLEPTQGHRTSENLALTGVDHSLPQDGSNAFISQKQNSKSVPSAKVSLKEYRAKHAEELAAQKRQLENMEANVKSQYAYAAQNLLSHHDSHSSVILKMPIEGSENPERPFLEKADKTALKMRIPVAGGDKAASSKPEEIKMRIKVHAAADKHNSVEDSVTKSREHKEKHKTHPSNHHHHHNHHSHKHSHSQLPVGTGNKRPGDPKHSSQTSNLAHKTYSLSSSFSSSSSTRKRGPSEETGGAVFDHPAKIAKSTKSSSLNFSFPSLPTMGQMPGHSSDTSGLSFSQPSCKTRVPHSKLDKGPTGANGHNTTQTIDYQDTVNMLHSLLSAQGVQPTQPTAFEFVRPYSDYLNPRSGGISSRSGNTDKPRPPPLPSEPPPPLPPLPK
# Outline: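 Full-length His-tagged human CDK9/CycT1 (insect cell, ~0.5 μg/mL) preincubated 15 min at 22 °C with compound in Tris pH 8.0, MgCl2, DTT buffer before reaction with biotinylated peptide substrate at high ATP (2 mM).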
# CDK12/CycK = CDK12/CycK (Homo sapiens, UniProt Q9NYV4); assay: CDK12/CycK high ATP kinase assay (TR-FRET, 2 mM ATP); format: biochemical; conditions: 2 mM ATP (high ATP); median; read-out: CDK12/CyclinK, 2 mM ATP (high ATP), IC50-[mol/l] (median)
# CDK12/CycK, sequence (Q9NYV4 with tags, fused parts or gaps): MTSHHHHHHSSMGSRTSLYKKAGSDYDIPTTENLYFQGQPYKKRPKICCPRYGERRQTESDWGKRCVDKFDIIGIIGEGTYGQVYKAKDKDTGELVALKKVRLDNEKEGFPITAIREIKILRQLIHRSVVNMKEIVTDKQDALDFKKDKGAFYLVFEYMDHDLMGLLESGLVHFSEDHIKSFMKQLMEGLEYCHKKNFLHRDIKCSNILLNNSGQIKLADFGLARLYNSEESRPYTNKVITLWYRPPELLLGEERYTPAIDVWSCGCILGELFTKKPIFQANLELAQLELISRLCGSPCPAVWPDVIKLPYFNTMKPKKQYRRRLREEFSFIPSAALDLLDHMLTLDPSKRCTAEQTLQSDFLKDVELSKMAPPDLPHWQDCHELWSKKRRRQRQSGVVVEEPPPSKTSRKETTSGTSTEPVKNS
# CDK12/CycK, sequence (O75909 1-300 partner limits assumed): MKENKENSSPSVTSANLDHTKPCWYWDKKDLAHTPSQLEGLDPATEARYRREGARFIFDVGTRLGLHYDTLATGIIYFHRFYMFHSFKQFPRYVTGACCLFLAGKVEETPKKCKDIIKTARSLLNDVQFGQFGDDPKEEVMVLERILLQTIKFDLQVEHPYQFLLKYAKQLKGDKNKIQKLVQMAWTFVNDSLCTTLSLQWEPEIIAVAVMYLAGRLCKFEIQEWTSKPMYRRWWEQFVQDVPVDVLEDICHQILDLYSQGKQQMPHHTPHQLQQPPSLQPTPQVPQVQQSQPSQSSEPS
# Outline: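 Read-out is TR-FRET (Eu-anti-rabbit IgG, anti-phospho-c-Myc Ser62 antibody, streptavidin-XL665) after EDTA stop. Reaction ran 60 min at 22 °C using 1 µM biotin-peptide and high ATP (2 mM) with roughly 0.75 nM recombinant CDK12/CycK, after 15 min compound pre-binding; normalised emission ratios yield IC50.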
# [1] = 2 mM ATP (high ATP), median, read-out: CDK9/CyclinT1, 2 mM ATP (high ATP), IC50 (median)
SMILES,IC50 (CDK9/CycT1; [1]) [µM],IC50 (CDK12/CycK) [µM],IC50 (CDK9/CycT1) [µM]
"C[C@H]1CN(C)CCN1c1nc(NCc2nc3c(F)cccc3[nH]2)n2ncc(C(F)(F)F)c2n1 [Example 388, 2-[(2S)-2,4-dimethylpiperazin-1-yl]-N-[(4-fluoro-1H-benzimidazol-2-yl)methyl]-8-(trifluoromethyl)pyrazolo[1,5-a][1,3,5]triazin-4-amine]",> 20,6.84,
"CN(CC(C)(C)O)c1nc(NCc2nc3c(F)c(Cl)ccc3[nH]2)n2ncc(Br)c2n1 [Example 374, 1-[(8-bromo-4-{[(5-chloro-4-fluoro-1H-benzimidazol-2-yl)methyl]amino}pyrazolo[1,5-a][1,3,5]triazin-2-yl)(methyl)amino]-2-methylpropan-2-ol]",1.64,0.155,
"CC(C)c1cnn2c(NCc3ncc(-c4ccccc4)[nH]3)nc(N3CCOCC3)nc12 [Example 30, 2-(morpholin-4-yl)-N-[(5-phenyl-1H-imidazol-2-yl)methyl]-8-(propan-2-yl)pyrazolo[1,5-a][1,3,5]triazin-4-amine]",> 20,2.95,
"FC(F)(F)c1ccc2[nH]c(CNc3nc(N4CC5CCC(C4)N5)nc4c(Br)cnn34)nc2c1 [Example 354, 8-bromo-2-(3,8-diazabicyclo[3.2.1]octan-3-yl)-N-{[5-(trifluoromethyl)-1H-benzimidazol-2-yl]methyl}pyrazolo[1,5-a][1,3,5]triazin-4-amine]",> 20,3.74,
"Fc1cccc(-c2nnc(CNc3nc(N4CCOCC4)nc4c(C(F)(F)F)cnn34)[nH]2)c1 [Example 385, N-{[5-(3-fluorophenyl)-4H-1,2,4-triazol-3-yl]methyl}-2-(morpholin-4-yl)-8-(trifluoromethyl)pyrazolo[1,5-a][1,3,5]triazin-4-amine]",1.29,0.28,
"CN(CC(C)(C)O)c1nc(NCc2nc3cc(F)c(Cl)cc3[nH]2)n2ncc(Br)c2n1 [Example 338, 1-[(8-bromo-4-{[(6-chloro-5-fluoro-1H-benzimidazol-2-yl)methyl]amino}pyrazolo[1,5-a][1,3,5]triazin-2-yl)(methyl)amino]-2-methylpropan-2-ol]",8.3,1.18,
"CN1CCN(c2nc(NCc3nc4cc(F)c(Cl)cc4[nH]3)n3ncc(Br)c3n2)CC1 [Example 337, 8-bromo-N-[(6-chloro-5-fluoro-1H-benzimidazol-2-yl)methyl]-2-(4-methylpiperazin-1-yl)pyrazolo[1,5-a][1,3,5]triazin-4-amine]",> 20,8.72,
"FC(F)(F)c1ccc2[nH]c(CNc3nc(N4CC5CCC(C4)N5)nc4c(C5CC5)cnn34)nc2c1 [Example 327, 8-cyclopropyl-2-(3,8-diazabicyclo[3.2.1]octan-3-yl)-N-{[5-(trifluoromethyl)-1H-benzimidazol-2-yl]methyl}pyrazolo[1,5-a][1,3,5]triazin-4-amine]",> 20,2.35,
"Clc1cc2nc(CNc3nc(N4CCOCC4)nc4c(Br)cnn34)[nH]c2cc1Cl [Example 329, 8-bromo-N-[(5,6-dichloro-1H-benzimidazol-2-yl)methyl]-2-(morpholin-4-yl)pyrazolo[1,5-a][1,3,5]triazin-4-amine]",13.8,0.54,
"Fc1cc2nc(CNc3nc(N4CC5CCC(C4)N5)nc4c(C5CC5)cnn34)[nH]c2cc1F [Example 325, 8-cyclopropyl-2-(3,8-diazabicyclo[3.2.1]octan-3-yl)-N-[(5,6-difluoro-1H-benzimidazol-2-yl)methyl]pyrazolo[1,5-a][1,5]triazin-4-amine]",> 20,3.55,
"FC(F)(F)c1ccc2[nH]c(CNc3nc(N4CCOCC4)nc4c(C5CC5)cnn34)nc2c1 [Example 322, 8-cyclopropyl-2-(morpholin-4-yl)-N-{[5-(trifluoromethyl)-1H-benzimidazol-2-yl]methyl}pyrazolo[1,5-a][1,3,5]triazin-4-amine]",> 20,1.21,
"CN1C2CCC1CN(c1nc(NCc3nc4c(F)cccc4[nH]3)n3ncc(C(F)(F)F)c3n1)C2 [Example 384, N-[(4-fluoro-1H-benzimidazol-2-yl)methyl]-2-(8-methyl-3,8-diazabicyclo[3.2.1]octan-3-yl)-8-(trifluoromethyl)pyrazolo[1,5-a][1,3,5]triazin-4-amine]",> 20,8.11,
"CN1CCN(c2nc(NCc3nc4cc(OC(F)(F)F)ccc4[nH]3)n3ncc(Br)c3n2)CC1 [Example 377, 8-bromo-2-(4-methylpiperazin-1-yl)-N-{[5-(trifluoromethoxy)-1H-benzimidazol-2-yl]methyl}pyrazolo[1,5-a][1,3,5]triazin-4-amine]",> 20,5.09,
"Fc1cc2nc(CNc3nc(N4CC5CCC(C4)N5)nc4c(Br)cnn34)[nH]c2cc1Cl [Example 348, 8-bromo-N-[(6-chloro-5-fluoro-1H-benzimidazol-2-yl)methyl]-2-(3,8-diazabicyclo[3.2.1]octan-3-yl)pyrazolo[1,5-a][1,3,5]triazin-4-amine]",,2.89,14
"Cc1[nH]c(CNc2nc(N3CCOCC3)nc3c(Br)cnn23)nc1-c1ccccc1 [Example 27, 8-bromo-N-[(5-methyl-4-phenyl-1H-imidazol-2-yl)methyl]-2-(morpholin-4-yl)pyrazolo[1,5-a][1,3,5]triazin-4-amine]",14.7,3.48,
"Brc1cnn2c(NCc3nc4ccccc4[nH]3)nc(N3C[C@H]4CC[C@@H]3CO4)nc12 (single isomer, unassigned) [Example 383, N-[(1H-benzimidazol-2-yl)methyl]-8-bromo-2-{[1R or S-(1R*,4R*)]-2-oxa-5-azabicyclo[2.2.2]octan-5-yl}pyrazolo[1,5-a][1,3,5]triazin-4-amine]",> 20,4.97,
"Fc1c(Cl)ccc2[nH]c(CNc3nc(N4CC5CCC(C4)N5)nc4c(C5CC5)cnn34)nc12 [Example 379, N-[(5-chloro-4-fluoro-1H-benzimidazol-2-yl)methyl]-8-cyclopropyl-2-(3,8-diazabicyclo[3.2.1]octan-3-yl)pyrazolo[1,5-a][1,3,5]triazin-4-amine]",11.3,0.528,
"CN(CC(C)(C)O)c1nc(NCc2nc3cc(C(F)(F)F)ccc3[nH]2)n2ncc(Br)c2n1 [Example 345, 1-{[8-bromo-4-({[5-(trifluoromethyl)-1H-benzimidazol-2-yl]methyl}amino)pyrazolo[1,5-a][1,3,5]triazin-2-yl](methyl)amino}-2-methylpropan-2-ol]",6.24,0.661,
"Fc1c(Cl)ccc2[nH]c(CNc3nc(N4CC5CCC(C4)N5)nc4c(Br)cnn34)nc12 [Example 380, 8-bromo-N-[(5-chloro-4-fluoro-1H-benzimidazol-2-yl)methyl]-2-(3,8-diazabicyclo[3.2.1]octan-3-yl)pyrazolo[1,5-a][1,3,5]triazin-4-amine]",5.93,1.02,
"FC(F)(F)Oc1cccc2[nH]c(CNc3nc(N4CCOCC4)nc4c(Br)cnn34)nc12 [Example 375, 8-bromo-2-(morpholin-4-yl)-N-{[4-(trifluoromethoxy)-1H-benzimidazol-2-yl]methyl}pyrazolo[1,5-a][1,3,5]triazin-4-amine]",14.5,4.56,
"CN1CCN(c2nc(NCc3nc4c(OC(F)(F)F)cccc4[nH]3)n3ncc(Br)c3n2)CC1 [Example 376, 8-bromo-2-(4-methylpiperazin-1-yl)-N-{[4-(trifluoromethoxy)-1H-benzimidazol-2-yl]methyl}pyrazolo[1,5-a][1,3,5]triazin-4-amine]",> 20,> 20,
"Cc1cc2nc(CNc3nc(N4CCOCC4)nc4c(C5CC5)cnn34)[nH]c2cc1C [Example 320, 8-cyclopropyl-N-[(5,6-dimethyl-1H-benzimidazol-2-yl)methyl]-2-(morpholin-4-yl)pyrazolo[1,5-a][1,3,5]triazin-4-amine]",> 20,0.557,
CN(CC(C)(C)O)c1nc(NCc2nc3cc(F)c(F)cc3[nH]2)n2ncc(Br)c2n1 [Example 347],10.4,2.18,
"Clc1cc2nc(CNc3nc(N4CC5CCC(C4)N5)nc4c(Br)cnn34)[nH]c2cc1Cl [Example 334, 8-bromo-2-(3,8-diazabicyclo[3.2.1]octan-3-yl)-N-[(5,6-dichloro-1H-benzimidazol-2-yl)methyl]pyrazolo[1,5-a][1,3,5]triazin-4-amine]",8.14,2.03,
"Cc1cc2nc(CNc3nc(N(C)CC(C)(C)O)nc4c(C5CC5)cnn34)[nH]c2cc1C [Example 321, 1-[(8-cyclopropyl-4-{[(5,6-dimethyl-1H-benzimidazol-2-yl)methyl]amino}pyrazolo[1,5-a][1,3,5]triazin-2-yl)(methyl)amino]-2-methylpropan-2-ol]",7.3,0.416,
